ChEMBL document CHEMBL4382229, “Benzofuran derivatives and their anti-tubercular, anti-bacterial activities” (Eur J Med Chem, 2019)
In brackets after ≈: the same amount, converted by molar mass.

Legend:
[1] = target: DNA gyrase subunit A/DNA gyrase subunit B (Mycobacterium tuberculosis (strain ATCC 25618 / H37Rv), UniProt P9WG45+P9WG47); test: Inhibition of Mycobacterium tuberculosis H37Rv DNA gyrase A/B expressed in Escherichia coli assessed as reduction in supercoiling of relaxed pBR322 DNA substrate measured after 60 mins by ethidium bromide staining based agarose gel electrophoresis method
Chain of DNA gyrase subunit A/DNA gyrase subunit B (P9WG45 whole entry, the tested form may be a part): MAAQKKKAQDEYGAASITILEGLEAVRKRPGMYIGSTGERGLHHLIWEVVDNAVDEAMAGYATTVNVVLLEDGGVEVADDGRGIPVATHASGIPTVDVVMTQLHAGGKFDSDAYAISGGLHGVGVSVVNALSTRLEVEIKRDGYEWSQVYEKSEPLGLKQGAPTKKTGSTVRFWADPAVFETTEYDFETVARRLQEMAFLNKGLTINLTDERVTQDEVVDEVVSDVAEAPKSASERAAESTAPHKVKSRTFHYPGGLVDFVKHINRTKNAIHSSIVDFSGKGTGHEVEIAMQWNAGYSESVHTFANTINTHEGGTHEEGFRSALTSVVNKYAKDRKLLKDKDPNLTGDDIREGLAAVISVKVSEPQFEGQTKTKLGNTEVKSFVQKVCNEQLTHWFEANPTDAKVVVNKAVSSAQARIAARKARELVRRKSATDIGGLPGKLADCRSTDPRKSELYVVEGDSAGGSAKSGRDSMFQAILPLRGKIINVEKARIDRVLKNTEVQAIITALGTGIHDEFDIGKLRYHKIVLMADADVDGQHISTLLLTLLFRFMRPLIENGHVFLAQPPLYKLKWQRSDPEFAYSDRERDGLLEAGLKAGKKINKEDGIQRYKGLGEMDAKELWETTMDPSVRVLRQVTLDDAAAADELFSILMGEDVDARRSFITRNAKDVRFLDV
Chain of DNA gyrase subunit A/DNA gyrase subunit B (P9WG47 whole entry, the tested form may be a part): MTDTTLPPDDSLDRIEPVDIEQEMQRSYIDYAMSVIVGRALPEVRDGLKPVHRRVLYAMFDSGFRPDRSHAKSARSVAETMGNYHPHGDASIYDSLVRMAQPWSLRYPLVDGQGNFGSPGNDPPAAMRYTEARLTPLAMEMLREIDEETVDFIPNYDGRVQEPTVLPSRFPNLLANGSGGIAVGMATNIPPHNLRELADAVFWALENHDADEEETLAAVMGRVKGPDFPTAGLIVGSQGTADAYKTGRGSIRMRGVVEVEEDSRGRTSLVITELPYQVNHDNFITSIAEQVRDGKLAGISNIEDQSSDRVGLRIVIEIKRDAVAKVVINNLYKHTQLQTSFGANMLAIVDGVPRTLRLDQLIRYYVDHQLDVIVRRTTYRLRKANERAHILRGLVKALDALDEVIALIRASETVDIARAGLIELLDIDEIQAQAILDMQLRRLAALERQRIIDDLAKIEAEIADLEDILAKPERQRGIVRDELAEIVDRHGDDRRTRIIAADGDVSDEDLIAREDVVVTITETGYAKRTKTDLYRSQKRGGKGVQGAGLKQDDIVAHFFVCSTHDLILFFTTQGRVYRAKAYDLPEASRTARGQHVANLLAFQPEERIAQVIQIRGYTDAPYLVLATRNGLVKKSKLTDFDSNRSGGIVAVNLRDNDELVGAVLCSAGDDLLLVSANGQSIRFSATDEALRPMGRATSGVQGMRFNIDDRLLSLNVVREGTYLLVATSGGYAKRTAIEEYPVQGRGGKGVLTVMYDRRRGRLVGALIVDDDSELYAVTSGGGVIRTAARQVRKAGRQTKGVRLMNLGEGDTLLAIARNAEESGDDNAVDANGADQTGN

Staphylococcus aureus [2] = test: Antibacterial activity against Staphylococcus aureus MTCC 96 assessed as zone of inhibition at 100 ug/ml by disc diffusion method; assay type: functional; settings: read-out: IZ
Streptococcus pyogenes [3] = test: Antibacterial activity against Streptococcus pyogenes MTCC 442 assessed as zone of inhibition at 100 ug/ml by disc diffusion method; assay type: functional; settings: read-out: IZ
Escherichia coli [4] = test: Antibacterial activity against Escherichia coli MTCC 443 assessed as zone of inhibition at 100 ug/ml by disc diffusion method; assay type: functional; settings: read-out: IZ
Pseudomonas aeruginosa [5] = test: Antibacterial activity against Pseudomonas aeruginosa MTCC 424 assessed as zone of inhibition at 100 ug/ml by disc diffusion method; assay type: functional; settings: read-out: IZ
Proteus vulgaris [6] = test: Antibacterial activity against Proteus vulgaris after 24 hrs; assay type: functional
Proteus vulgaris [7] = test: Potency index, ratio of norfloxacin MIC to test compound MIC for Proteus vulgaris; assay type: functional
Escherichia coli [8] = test: Antibacterial activity against Escherichia coli by broth dilution method; assay type: functional
Pseudomonas aeruginosa [9] = test: Antibacterial activity against Pseudomonas aeruginosa by broth dilution method; assay type: functional
[10] = tested on: Mycobacterium tuberculosis; test: Antimycobacterial activity against Mycobacterium tuberculosis H37Rv ATCC 27294 after 5 days by microplate alamar blue assay; assay type: functional; settings: H37Rv ATCC 27294, 120 h
Bacillus subtilis = test: Antibacterial activity against Bacillus subtilis MTCC 1134 after 24 hrs by broth dilution method; assay type: functional; settings: MTCC 1134, 24 h
Escherichia coli [11] = test: Antibacterial activity against Escherichia coli MTCC 1559 after 24 hrs by broth dilution method; assay type: functional; settings: MTCC 1559, 24 h
Pseudomonas aeruginosa [12] = test: Antibacterial activity against Pseudomonas aeruginosa MTCC 1034 after 24 hrs by broth dilution method; assay type: functional; settings: MTCC 1034, 24 h
Bacillus spizizenii = test: Antibacterial activity against Bacillus subtilis ATCC 6633 after 24 hrs by broth dilution method; assay type: functional; settings: ATCC 6633, 24 h
Staphylococcus aureus [13] = test: Antibacterial activity against Staphylococcus aureus ATCC 29213 after 24 hrs by broth dilution method; assay type: functional; settings: ATCC 29213, 24 h
Escherichia coli [14] = test: Antibacterial activity against Escherichia coli ATCC 11229 after 24 hrs by broth dilution method; assay type: functional; settings: ATCC 11229, 24 h
Proteus vulgaris [15] = test: Antibacterial activity against Proteus vulgaris […] after 24 hrs by broth dilution method; assay type: functional
Staphylococcus aureus [16] = test: Antibacterial activity against Staphylococcus aureus MTCC 96 assessed as zone of inhibition at 25 ug/ml by agar well diffusion method; assay type: functional; settings: read-out: IZ
Streptococcus pyogenes [17] = test: Antibacterial activity against Streptococcus pyogenes MTCC 442 assessed as zone of inhibition at 25 ug/ml by agar well diffusion method; assay type: functional; settings: read-out: IZ
Escherichia coli [18] = test: Antibacterial activity against Escherichia coli MTCC 443 assessed as zone of inhibition at 25 ug/ml by agar well diffusion method; assay type: functional; settings: read-out: IZ
Pseudomonas aeruginosa [19] = test: Antibacterial activity against Pseudomonas aeruginosa MTCC 424 assessed as zone of inhibition at 25 ug/ml by agar well diffusion method; assay type: functional; settings: read-out: IZ
Escherichia coli [20] = test: Antibacterial activity against Escherichia coli assessed as zone of inhibition at 50 ug/ml after 3 days by filter paper disc method; assay type: functional; settings: 72 h, read-out: IZ
Pseudomonas aeruginosa [21] = test: Antibacterial activity against Pseudomonas aeruginosa assessed as zone of inhibition at 50 ug/ml after 3 days by filter paper disc method; assay type: functional; settings: 72 h, read-out: IZ

O=C1Nc2ccc([N+](=O)[O-])cc2/C1=N/NC(=O)c1cc2ccccc2o1
IC50 [1]: 50 to 200 µM

Cc1cc(NS(=O)(=O)c2ccc(Cl)cc2)c2oc(COC(=O)NCc3ccccc3)cc2c1
zone of inhibition at 100 µg/mL (Staphylococcus aureus [2]): 11 to 28 mm
zone of inhibition at 100 µg/mL (Streptococcus pyogenes [3]): 11 to 28 mm
zone of inhibition at 100 µg/mL (Escherichia coli [4]): 11 to 28 mm
zone of inhibition at 100 µg/mL (Pseudomonas aeruginosa [5]): 11 to 28 mm

O=C1Nc2c(O)cccc2/C1=N/NC(=O)c1cc2ccccc2o1
MIC (Proteus vulgaris [6]): 31.2 mg/L (≈ 97.3 µM)
Ratio (Proteus vulgaris [7]): 2

O=C1Nc2c(cccc2[N+](=O)[O-])/C1=N/NC(=O)c1cc2ccccc2o1
MIC (Proteus vulgaris [6]): 31.2 mg/L (≈ 89.2 µM)
Ratio (Proteus vulgaris [7]): 2

Cc1ccc2c(c1)/C(=N/NC(=O)c1cc3ccccc3o1)C(=O)N2
IC50 [1]: 50 to 200 µM

COc1ccc2occ(-c3cc4ccccc4oc3=O)c2c1
MIC (Escherichia coli [8]): 6.25 to 100 mg/L (≈ 21.4 to 342 µM)
MIC (Pseudomonas aeruginosa [9]): 6.25 to 100 mg/L (≈ 21.4 to 342 µM)

O=c1oc2ccccc2cc1-c1coc2ccc3ccccc3c12
MIC (Escherichia coli [8]): 6.25 to 100 mg/L (≈ 20 to 320 µM)
MIC (Pseudomonas aeruginosa [9]): 6.25 to 100 mg/L (≈ 20 to 320 µM)

COc1ccc(S(=O)(=O)Nc2cc(C)cc3cc(COC(=O)NCc4ccccc4)oc23)cc1
zone of inhibition at 100 µg/mL (Staphylococcus aureus [2]): 19 to 28 mm
zone of inhibition at 100 µg/mL (Streptococcus pyogenes [3]): 19 to 28 mm
zone of inhibition at 100 µg/mL (Escherichia coli [4]): 19 to 28 mm
zone of inhibition at 100 µg/mL (Pseudomonas aeruginosa [5]): 19 to 28 mm

Cc1ccc2c(-c3cc4cc(Br)ccc4oc3=O)coc2c1
MIC (Escherichia coli [8]): 6.25 to 100 mg/L (≈ 17.6 to 282 µM)
MIC (Pseudomonas aeruginosa [9]): 6.25 to 100 mg/L (≈ 17.6 to 282 µM)

CN[C@@H]1[C@H](O[C@H]2[C@H](O[C@H]3[C@H](O)[C@@H](O)[C@H](N=C(N)N)[C@@H](O)[C@@H]3N=C(N)N)O[C@@H](C)[C@]2(O)C=O)O[C@@H](CO)[C@H](O)[C@H]1O [STREPTOMYCIN]
MIC [10]: 6.25 mg/L (≈ 10.7 µM)
MIC (Bacillus subtilis): 17.2 to 19.4 mg/L (≈ 29.7 to 33.3 µM)
MIC (Escherichia coli [11]): 17.2 to 19.4 mg/L (≈ 29.7 to 33.3 µM)
MIC (Pseudomonas aeruginosa [12]): 17.2 to 19.4 mg/L (≈ 29.7 to 33.3 µM)

Cc1ccc(S(=O)(=O)Nc2cc(C)cc3cc(COC(=O)NCc4ccccc4)oc23)cc1
zone of inhibition at 100 µg/mL (Staphylococcus aureus [2]): 11 to 28 mm
zone of inhibition at 100 µg/mL (Streptococcus pyogenes [3]): 11 to 28 mm
zone of inhibition at 100 µg/mL (Escherichia coli [4]): 11 to 28 mm
zone of inhibition at 100 µg/mL (Pseudomonas aeruginosa [5]): 11 to 28 mm

COc1ccc2occ(-c3cc4cc(Br)ccc4oc3=O)c2c1
MIC (Escherichia coli [8]): 6.25 to 100 mg/L (≈ 16.8 to 269 µM)
MIC (Pseudomonas aeruginosa [9]): 6.25 to 100 mg/L (≈ 16.8 to 269 µM)

COc1ccc(-c2nn(-c3ccccc3)cc2/C=C/c2oc3c4c(ccc3c2C(=O)c2ccc(Br)cc2)OCC=C4)cc1
MIC (Bacillus spizizenii): 3.1 to 6.3 mg/L (≈ 4.92 to 10 µM)
MIC (Staphylococcus aureus [13]): 3.1 to 6.3 mg/L (≈ 4.92 to 10 µM)
MIC (Escherichia coli [14]): 3.1 to 6.3 mg/L (≈ 4.92 to 10 µM)
MIC (Proteus vulgaris [15]): 3.1 to 6.3 mg/L (≈ 4.92 to 10 µM)

O=c1oc2ccc(Br)cc2cc1-c1coc2ccc3ccccc3c12
MIC (Escherichia coli [8]): 6.25 to 100 mg/L (≈ 16 to 256 µM)
MIC (Pseudomonas aeruginosa [9]): 6.25 to 100 mg/L (≈ 16 to 256 µM)

Cc1c(C(=O)NN)oc2ccccc12
MIC [10]: 6.25 mg/L (≈ 32.9 µM)

Cc1ccc2c(-c3cc4ccccc4oc3=O)coc2c1
MIC (Escherichia coli [8]): 6.25 to 100 mg/L (≈ 22.6 to 362 µM)
MIC (Pseudomonas aeruginosa [9]): 6.25 to 100 mg/L (≈ 22.6 to 362 µM)

COc1cc(OC)c(-c2cc3cc(C(=O)/C=C/c4ccc5occc5c4)cc(OC)c3o2)c(OC)c1
zone of inhibition at 25 µg/mL (Staphylococcus aureus [16]): 21 to 28 mm
zone of inhibition at 25 µg/mL (Streptococcus pyogenes [17]): 21 to 28 mm
zone of inhibition at 25 µg/mL (Escherichia coli [18]): 21 to 28 mm
zone of inhibition at 25 µg/mL (Pseudomonas aeruginosa [19]): 21 to 28 mm

Nc1nn2c(-c3ccc(N4CCCCC4)cc3)cc(-c3cc4ccccc4o3)nc2c1/N=N/c1ccccc1
zone of inhibition at 50 µg/mL (Escherichia coli [20]): 9 to 18 mm
zone of inhibition at 50 µg/mL (Pseudomonas aeruginosa [21]): 9 to 18 mm

CCOc1ccc(-c2nn(-c3ccccc3)cc2/C=C/c2oc3c4c(ccc3c2C(=O)c2ccc(Br)cc2)OCC=C4)cc1
MIC (Bacillus spizizenii): 6.3 to 25 mg/L (≈ 9.79 to 38.8 µM)
MIC (Staphylococcus aureus [13]): 6.3 to 25 mg/L (≈ 9.79 to 38.8 µM)
MIC (Escherichia coli [14]): 6.3 to 25 mg/L (≈ 9.79 to 38.8 µM)
MIC (Proteus vulgaris [15]): 6.3 to 25 mg/L (≈ 9.79 to 38.8 µM)

O=C1Nc2ccc(F)cc2/C1=N/NC(=O)c1cc2cc([N+](=O)[O-])ccc2o1
IC50 [1]: 50 to 200 µM

O=c1oc2ccccc2cc1-c1coc2c1ccc1ccccc12
MIC (Escherichia coli [8]): 6.25 to 100 mg/L (≈ 20 to 320 µM)
MIC (Pseudomonas aeruginosa [9]): 6.25 to 100 mg/L (≈ 20 to 320 µM)
